According to US8715754B2, “Chromobacterium bioactive compositions and metabolites” (Marrone Bio Innovations, Inc., priority 2010, dated 2014):

Assays:
[1] = system: Cabbage looper (Trichoplusia ni) or Beet armyworm (Spodoptera exigua); assay: Screening of fractions and pure compounds in feeding assay; assay type: in vivo; details: HPLC-purified compounds
Description: The culture broth derived from the 10-L fermentation C. substugae in L-broth is extracted with Amberlite XAD-7 resin (Asolkar et al., 2006) by shaking the cell suspension with resin at 225 rpm for two hours at room temperature. The resin and cell mass are collected by filtration through cheesecloth and washed with DI water to remove salts. The resin, cell mass, and cheesecloth are then soaked for 2 h in acetone/methanol (50/50) after which the acetone/methanol is filtered and dried under vacuum using rotary evaporator to give the crude extract. The crude extract is then fractionated by using Sephadex LH 20 size exclusion chromatography (CH2Cl2/CH3OH; 50/50) to give 7 fractions (FIG. 1). These fractions are then concentrated to dryness using rotary evaporator and the resulting dry residues are screened for biological activity using a feeding assay with Cabbage looper (Trichoplusia ni) or Beet armyworm (Spodoptera exigua). The active fractions are then subjected to reversed phase HPLC (Spectra System P4000 (Thermo Scientific) to give pure compounds, which are then screened in above mentioned bioassays to locate/identify the active compounds. To confirm the identity of the compound, additional spectroscopic data such as LC/MS and NMR is recorded.

[2] = system: Cabbage Looper (Trichoplusia ni); assay: whole plant or invertebrate; assay type: in vivo
Description: Toxicity of the compound of interest in fraction 1 (F1) was confirmed in an in vitro assay using 1st instar cabbage looper larvae as a test object.
Two hundred microliters of commercial cabbage looper diet was distributed in each well of a 96-well microplate. After the diet had solidified, 100 uL of solution containing 50 uL of extract (corresponding to four individual peaks found in fraction 1; H1-H4), 350 uL EtOH and 600 uL sterile DI water was pipetted in each well, after which the plate was dried using a hand-held fan. The amount of extract in each well was 10 micrograms. Each treatment was replicated eight times, and a mixture of pure ethanol and water was used as a negative control.
One test insect (1st instar larvae of cabbage looper) was placed in each well, and the plate was covered with an adhesive seal. The seal was punctured for aeration, and the sealed plate was incubated at 26° C. for four days.
The 96-well plate assay system described in the previous example was used to determine the concentration of pure violacein needed to kill 50% of the 1st instar cabbage looper larvae. Based on the data, violacein is a potent insecticide with an estimated LC50 value of 7*10^−6 micrograms per well for cabbage looper larvae in an in vitro diet-overlay assay.

[3] = system: Beet Armyworm, Spodoptera exigua; assay: Synergy test on treated artificial diet, beet armyworm; assay type: in vivo
Description: (§1) Synergy tests were performed by treating artificial diet in 96-well plates and feeding treated diet to neonate larvae. 100 μL of treatment were pipetted into multiple wells of each plate. […] The diet was fan-dried to remove excess moisture. Neonate Beet Armyworm, Spodoptera exigua, or Cabbage Loopers, Trichoplusia ni, were transferred into each well of the multi-well plate. Infested plates were covered with adhesive plate sealer and a single small hole was poked into the sealer over each well to allow for aeration. Plates were stored in an incubator at 26° C., 16 h light/8 h dark cycle for […]. On the third and fourth day after infesting, mortality was scored.
(§2) The determination of a synergistic, antagonistic, or additive interaction was determined using the methods from (Colby 1967). Due to variation in bioassays, it was determined that ratios between 0 and 0.9 would be considered antagonistic, 0.9-1.1 ratios would be additive, and ratios above 1.1 would be considered synergistic relationships.
MBI-203 synergy with insecticides against Beet Army Worm (BAW) was tested. Chlorantranilipole (marketed as Coragen®, Dupont), Bacillus thuringiensis var. kurstaki (Dipel®, Valent Biosciences), Spinosad (marketed as Entrust®, Dow Agro Sciences), Spirotetramet (marketed as Movento®, Bayer Crop Science) and Pyrethrum/pyrethrins (marketed as Pyganic®, Arbico Organics) were tested with MBI-203. As noted above, except where indicated, LC50 concentrations of MBI-203 and insecticides were used. […] Pyrethrum combinations with MBI-203 were antagonistic.

[4] = system: Cabbage Loopers, Trichoplusia ni; assay: Synergy test on treated artificial diet, cabbage loopers; assay type: in vivo
Description: as §1, §2
MBI-203 synergy with insecticides against Cabbage Loopers was tested. Chlorantranilipole (marketed as Coragen®, Dupont), Bacillus thuringiensis var. kurstaki (Dipel®, Valent Biosciences), Spinosad (marketed as Entrust®, Dow Agro Sciences), Spirotetramet (marketed as Movento®, Bayer Crop Science) and Pyrethrum/pyrethrins (marketed as Pyganic®, Arbico Organics) were tested with MBI-203. As noted above, except where indicated, LC50 concentrations of MBI-203 and insecticides were used.

[5] = system: root knot nematode Meloidogyne sp.; assay: Mini drench test, root galling of cucumber (Zeck's gall index); assay type: in vivo, Meloidogyne incognita; details: 20 ppm
Description: MBI-203 was tested for its intrinsic activity against the root knot nematode Meloidogyne sp. in two mini drench tests.
Specifically MBI-203 was tested in a greenhouse assay conducted in 45 ml pots. Cucumber seeds cv. Toshka were sown directly into pots filled with a sandy loam soil. Ten days later pots were each treated with 5 ml of a suspension. Hereafter, pots were inoculated with 3000 eggs of M. incognita. Four replicates were prepared for each treatment and rate. The trial was harvested fourteen days after trial application and inoculation. Root galling was assessed according to Zeck's gall index (Zeck, 1971). Specific conditions are set forth below in Table 3.

[6] = Trichoplusia ni, 96 h, read-out: % mortality Day 4

Compound: O=C1NC(c2c[nH]c3ccc(O)cc23)=C/C1=C1\C(=O)Nc2ccccc21 (single isomer, unassigned) [Violacein, violacein]
- activity in feeding bioassay (active compound) [1]: active
- mortality at 1e-06 µg/disc [2, 6]: 14.2%
- mortality at 1e-05 µg/disc [2, 6]: 71.4%
- mortality at 0.0001 µg/disc [2, 6]: 100%
- mortality at 0.001 µg/disc [2, 6]: 100%
- mortality at 0.01 µg/disc [2, 6]: 100%
- mortality at 0.1 µg/disc [2, 6]: 100%
- mortality at 1 µg/disc [2, 6]: 100%
- mortality at 10 µg/disc [2, 6]: 100%
- estimated LC50 ([2]; in vivo): 7*10^−6 micrograms per well

Compound: CNC(=O)c1cc(Cl)cc(C)c1NC(=O)c1cc(Br)nn1-c1ncccc1Cl [Chlorantranilipole]
- Product alone Kill % ([3]; LC50 concentration): 9.1%
- Product alone Kill % ([4]; LC50 concentration): 3%

Compound: CCOP(=O)(SC(C)CC)N1CCSC1=O (stereo not shown) [Fosthiazate]
- control ([5]; Mini drench test no. 1): 100%
- control ([5]; Mini drench test no. 2): 100%

Compound: CCOC(=O)OC1=C(c2cc(C)ccc2C)C(=O)N[C@]12CC[C@@H](OC)CC2 [Spirotetramet]
- Product alone Kill % ([3]; Spirotetramet 0.53X LC50): 42.9%
- Product alone Kill % ([3]; Spirotetramet 1.4X LC50): 77.5%
- Product alone Kill % ([4]; LC50 concentration): 23.8%
- Product alone Kill % ([4]; Spirotetramet 0.5X LC50): 41.5%

Compound: O=C1NC(c2c[nH]c3ccccc23)=C/C1=C1\C(=O)Nc2ccccc21 [deoxyviolacein (3), deoxyviolacein]
- activity in feeding bioassay (active compound) [1]: active

Compound: Spinosad
- Product alone Kill % ([3]; LC50 concentration): 68.7%
- Product alone Kill % ([4]; LC50 concentration): 54.3%

Compound: chromamide A
- activity in feeding bioassay (active compound) [1]: active
